Measured values as given in patent publication US7195892B2, “Acylase gene” (Kaneka Corporation, priority 2002, dated 2007).
Substitutions are numbered along the chain they refer to.

Assays:
Type in all cases: biochemical
[1] = target: T1, Escherichia coli PenG amidase (Escherichia coli, UniProt P06875); test: Amoxycillin synthetic activity inhibition by PAA and PXA; details: for relative activity, amoxycillin synthesis amount with the substrate alone set at 100%: 30 mM KPB pH 6.0, 30° C., 1 hour; for inhibition of amoxycillin synthesis (in words): summary of Table 1
T1 construct: purchased Sigma
Description: (§1) To 200 μl of a substrate solution prepared by dissolving 6-APA and HPGOMe-HCl in 30 mM KPB (pH 6.0) at the concentration of 0.5%, 10 μl of the enzyme solution obtained in (Examination Example 1) was added. PAA was added to be 0.3% and PXA was added to be 0.35%, and the mixture was subjected to reaction while shaking at 30° C. for 1 hour. Then, 1N HCl was added in 1/20 amount of the substrate to terminate the reaction. The generated amoxycillin was detected using HPLC. The result showing relative activity for the respective enzymes with the amoxycillin synthesis amount reacted by the substrate alone being set at 100% is shown in Table 1.

[2] = tested on: Stenotrophomonas maltophilia KNK12A strain-derived β-lactam acylase; test: as above; details: for relative activity, amoxycillin synthesis amount with the substrate alone set at 100%: 30 mM KPB pH 6.0, 30° C., 1 hour; for inhibition of amoxycillin synthesis (in words): summary of Table 1
Description: as §1

[3] = Comparison of amoxycillin synthesis activity; details: 0.5% 6-APA and HPGOMe-HCl, pH 6.0, 30° C., 0-120 minutes; FIG. 3
Description: Amoxycillin synthesis activities of the Stenotrophomonas maltophilia KNK12A strain-derived β-lactam acylase and the known Escherichia coli PenG amidase (Sigma) were compared. As an enzyme solution, the fraction obtained in (Example 8) (enzyme concentration: about 3.2 ng/10 μl) was used for the Stenotrophomonas maltophilia KNK12A strain-derived β-lactam acylase, and 100-fold diluted solution (10.2 munit/10 μl, enzyme concentration: about 3.5 ng/10 μl) was used for Escherichia coli PenG amidase.
To 200 μl of a substrate solution prepared by dissolving 6-APA and HPGOMe-HCl in 30 mM KPB (pH 6.0) at the concentration of 0.5%, 10 μl of the enzyme solution was added and the mixture was subjected to reaction while shaking at 30° C. After the lapse of 0, 5, 10, 15, 30, 45, 60, 75, 90, 105 and 120 minutes from the start of the reaction, 1N HCl was added in 1/20 amount of the substrate solution to terminate the reaction. The generated amoxycillin was detected using HPLC.

[4] = Decomposition activity of amoxycillin; details: 0.5% amoxycillin, pH 6.0, 30° C., 1 hour; FIG. 4
Description: (§2) To 200 μl of a solution prepared by dissolving amoxycillin in 30 mM KPB (pH 6.0) at the concentration of 0.5%, 10 μl of the enzyme solution obtained in (Examination Example 1) was added. The mixture was subjected to reaction for 1 hour while shaking at 30° C., and 1N HCl was added in 1/20 amount of the substrate solution to terminate the reaction.
as §2, with “a liquid” for “a solution”, “reaction” for “reaction for 1 hour”, “30° C. for 1 hour,” for “30° C.,”, “and then” for “and”, “reaction. The remained amoxycillin was detected using HPLC.” for “reaction.”

[5] = Comparison of decomposition activity of HPGOMe; details: 0.5% HPGOMe-HCl, pH 6.0, 30° C., 1 hour; FIG. 5
Description: To 200 μl of a liquid prepared by dissolving HPGOMe-HCl in 30 mM KPB (pH 6.0) at the concentration of 0.5%, 10μ of the enzyme solution obtained in (Examination Example 1) was added, and the mixture was subjected to reaction while shaking at 30° C. for 1 hour. Then, 1N HCl was added in 1/20 amount of the substrate solution to terminate the reaction. The remained HPGOMe was detected using HPLC.

[6] = Capability comparison examination of a mutant acylase; details: compared with unmodified acylase
Description: A β-lactam acylase-producing strain pUCNTkmTn5-KNK-L/HB101 strain and 1 amino acid-substituted mutant β-lactam acylase-producing strain pUCNT-Tn5-MuKNK-L1/HB101 strain were inoculated in 10 ml of CM culture medium, and shaking culture was carried out at 37° C. overnight. Cells were recovered from 2 ml of the culture by centrifugation, and suspended in 30 mM KPB (pH 6.0). Then, 1 ml of a substrate (prepared by dissolving 0.5% HPGOMe-HCl and 0.5% 6-APA in 30 mM KPB and adjusted to pH 6.0) was mixed therewith, and the mixture was subjected to reaction at 30° C. After the lapse of 10, 20, 30, 60, 90 and 180 minutes from the start of the reaction, 1N HCl was added in 1/20 amount of the substrate solution to terminate the reaction. Then, the centrifuged supernatant was diluted to 25-fold with 30 mM KPB, and 10 μl thereof was analyzed by HPLC. The amoxycillin conversion efficiency comparison is shown in FIG. 6, and ester decomposition degree comparison of D-p-hydroxyphenylglycine methyl ester (HPGOMe) is shown in FIG. 7.

T1 sequence (P06875 290-846): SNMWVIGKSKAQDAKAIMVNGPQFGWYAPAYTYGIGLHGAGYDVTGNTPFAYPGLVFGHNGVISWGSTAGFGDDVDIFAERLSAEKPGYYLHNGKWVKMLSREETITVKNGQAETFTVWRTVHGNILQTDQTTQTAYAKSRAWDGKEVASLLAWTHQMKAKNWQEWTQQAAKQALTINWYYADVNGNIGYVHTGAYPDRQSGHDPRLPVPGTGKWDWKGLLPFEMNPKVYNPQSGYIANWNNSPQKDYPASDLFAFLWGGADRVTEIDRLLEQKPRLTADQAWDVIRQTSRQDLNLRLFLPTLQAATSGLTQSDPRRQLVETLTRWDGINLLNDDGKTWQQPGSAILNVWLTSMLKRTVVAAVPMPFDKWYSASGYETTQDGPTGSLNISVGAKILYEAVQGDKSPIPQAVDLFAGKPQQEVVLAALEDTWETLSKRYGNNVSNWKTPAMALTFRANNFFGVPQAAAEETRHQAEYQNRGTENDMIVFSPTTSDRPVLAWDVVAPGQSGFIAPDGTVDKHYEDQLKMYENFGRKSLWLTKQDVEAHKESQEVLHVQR
T1 sequence (P06875 27-235): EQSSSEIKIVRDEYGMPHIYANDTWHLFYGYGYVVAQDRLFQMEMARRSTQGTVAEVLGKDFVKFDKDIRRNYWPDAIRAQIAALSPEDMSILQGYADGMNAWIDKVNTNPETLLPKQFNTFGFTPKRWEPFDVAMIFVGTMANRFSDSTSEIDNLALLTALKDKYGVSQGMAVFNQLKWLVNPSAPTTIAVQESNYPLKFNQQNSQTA

Molecule: O=C(O)COc1ccccc1 [PXA, Phenoxyacetic Acid]
- relative activity, amoxycillin synthesis amount with the substrate alone set at 100% ([1]; Substrate + 0.35% PXA): 0%
- inhibition of amoxycillin synthesis (in words) [1]: inhibited
- relative activity, amoxycillin synthesis amount with the substrate alone set at 100% ([2]; Substrate + 0.35% PXA): 76%
- inhibition of amoxycillin synthesis (in words) [2]: not inhibited at all, or even in the case there is inhibition, it is slight

Molecule: O=C(O)Cc1ccccc1 [PAA, Phenylacetic Acid]
- relative activity, amoxycillin synthesis amount with the substrate alone set at 100% ([1]; Substrate + 0.3% PAA): 0%
- inhibition of amoxycillin synthesis (in words) [1]: inhibited
- relative activity, amoxycillin synthesis amount with the substrate alone set at 100% ([2]; Substrate + 0.3% PAA): 107%
- inhibition of amoxycillin synthesis (in words) [2]: not inhibited at all, or even in the case there is inhibition, it is slight

B1: Stenotrophomonas maltophilia KNK12A strain-derived β-lactam acylase: β-lactam acylase of Stenotrophomonas maltophilia KNK12A, amino acid sequence SEQ ID NO:2, about 70 kDa (protein, listed as Stenotrophomonas maltophilia)
chain: MHVRAVAVAIALSLSSTVLAADTPPMTPDISGKPFIAPDVGRDYDKRVVMVPMRDGTRLYTVIVVPKGAHNAPILLTRTPYDAAGRASRSDSPRMRDLLPQGDEVFVDGGYIRVFQDIRGKYGSEGDYVMTRPLRGPLNNTKVDHSTDAWDTIDWLVKHVPESNGKVGMLGSSYEGFTVVMALTDPHPALKVAAPQSPMVDGWMGDDWLNYGAFRQVNFNYFAMQTEKRGKGTPLPSLGYDDYSTFLRIGSAGDYARFTGVDQLTWWKKLVQHPAYDGFWQGQALDAVMAKTPLKVPTMWLQGLWDQEDMWGANHAYQAMEGRDTGNTHNYLVMGPWRHSQVNYTGNELGALKFEGDTALQFRRDVLKPFFDQYLVDGAPKADTPPVLIYNTGENHWDRLQGWPRSCDKGCTAASKPLYLRAGGKLAFQAPAAGEGDFEEYVSDPAKPVPFVPRPVRFGDRDMWTTWLVKDQRFVDGRPDVLTFITEPLAEPLRIGGAPVVHLQASTSGTDSDWVVKLIDVYPDQEASTPEMGGYELPVSLAIFRGRYRESFSDPKPLAANQVLPYRFDLPNANHVFQKGHRVMVQVQSSLFPLYDRNPQTYVPNIYLAKPGDYQKATQRVWHSAAQASYVDLPVY
- amoxycillin synthesis conversion rate [3]: very high conversion rate as compared with Escherichia coli PenG amidase
- amoxycillin decomposition speed [4]: slow
- decomposition speed of HPGOMe [5]: faster than that of Escherichia coli PenG amidase

B2: mutant β-lactam acylase (protein, listed as Stenotrophomonas maltophilia)
chain: B1 chain with M204V
- acylase activity ([6]; FIG. 6): enhanced
- ester decomposition activity of the substrate HPGOMe ([6]; FIG. 7): reduced
